{"source": "patent US20150038739A1", "about": "“METHOD FOR MANUFACTURING REFINED METHIONINE” (SUMITOMO CHEMICAL COMPANY, LIMITED, priority 2012, published 2015)"}
{"smiles": "CSCC[C@H](N)C(=O)O", "note": "[methionine]", "values": [{"measurement": "solubility of methionine in pure water (saturated solubility)", "setting": "pure water, normal temperature and normal pressure", "value": "about 3.0 % by weight"}, {"measurement": "saturated solubility of methionine in alkaline recovered wash water", "setting": "under 2.0% by weight of concentration of potassium", "value": "about 5.0 % by weight"}]}
